Measurements from PMC10056443, “Derivatives of Amaryllidaceae Alkaloid Ambelline as Selective Inhibitors of Hepatic Stage of Plasmodium berghei Infection In Vitro” (Pharmaceutics, 2023).
Read-outs that look alike come from different tables or passages of the source.

Columns and labels:
[1] = system: P. falciparum NF54 ring-stage synchronized cultures; assay: In vitro activity against P. falciparum blood stages (flow cytometry, SYBR green I); format: cell-based, Plasmodium falciparum; conditions: Control = 7.76333, 48 h
Procedure: Activity against the blood stage of P. falciparum infection was assessed by flow cytometry analysis following the incubation of either test compounds or the drug vehicle (DMSO) with ring-stage synchronized parasite cultures, as previously described. Stock solutions of the test compounds, as well as of the positive control compound chloroquine, were prepared in DMSO and diluted to test concentrations in complete malaria culture medium (CMCM), i.e., 1640 RPMI medium supplemented with 25 mM HEPES, 2.4 mM L-glutamine, 50 µg/mL gentamicin, 0.5% w/v Albumax, 11 mM glucose, 1.47 mM hypoxanthine, and 37.3 mM NaHCO3. Samples at tested concentration were then incubated with ring-stage synchronized cultures of P. falciparum NF54 at 2.5% hematocrit and at approximately 1% parasitemia in 96-well plates at 37 °C in a 5% CO2 and 5% O2 atmosphere. Forty-eight hours post incubation, parasite load was assessed by flow cytometry, upon staining with the DNA-specific dye SYBR green I. Approximately 100,000 events were analyzed in each flow cytometry measurement.

[2] = Cytotoxicity assessment in vitro (MTT assay); format: cell-based; conditions: human
Procedure: (§1) HepG2 cells of human hepatocellular carcinoma (ATCC HB-8065; passage 20–25), purchased from Health Protection Agency Culture Collections (ECACC, Salisbury, UK), were cultured in Minimum Essential Medium Eagle supplemented with 10% v/v fetal bovine serum and 1% v/v L-glutamine solution (Sigma-Aldrich, St. Louis, MO, USA) at 37 °C in a humidified atmosphere containing 5% CO2. For passaging, the cells were treated with trypsin/EDTA (Sigma-Aldrich, St. Louis, MO, USA) at 37 °C and then harvested. For the cytotoxicity evaluation, the cells treated with the test substances were used, while untreated HepG2 cells served as a control group. The cells were seeded in a 96-well plate at a density of 1 × 10^4 cells per well and incubated for 24 h. All tested compounds were dissolved in DMSO to prepare 10 mM stock solutions and diluted to the desired concentration just before the cell treatment. Cytotoxicity of all studied derivatives was screened at 10 μM concentration, and all samples were measured in triplicates. Positive and negative controls were also included. Plates were incubated for 24 h in a humidified atmosphere containing 5% CO2 at 37 °C. After the incubation, a solution of thiazolyl blue tetrazolium bromide (Sigma-Aldrich, St. Louis, MO, USA) in RPMI 1640 medium without phenol red (BioTech, Prague, Czech Republic) was added and incubated for 3 h in a humidified atmosphere containing 5% CO2 at 37 °C. Afterwards, formazan crystals were dissolved in DMSO, and the absorbance of samples was recorded at 570 nm (Synergy Neo2 Multi-Mode Reader NEO2SMALPHAB; BioTek, Winooski, VT, USA).

HepG2 cells = assay: Cytotoxicity assessment in vitro (MTT assay); format: cell-based; conditions: human, 24 h, 10 µM
Procedure: as §1

[3] = system: hepatic stage of P. berghei; assay: In vitro activity against P. berghei hepatic stages (luciferase-expressing sporozoites in Huh-7 cells, bioluminescence); format: cell-based, Plasmodium berghei; conditions: for activity at 1 µM / activity at 10 µM / IC50: Plasmodium berghei; for activity at 1 µM / activity at 10 µM: Huh-7, 48 h, DMSO = 100, read-out: INFECTION Ø screening; for activity against P. berghei hepatic stages: screening at 10 and 1 µM / IC50 determination
Procedure: Activity against the hepatic stage of P. berghei infection was assessed using the human hepatoma cell line Huh-7 (deposited at the Japanese Collection of Research Bioresources under JCRB0403). The protocol was previously comprehensively described by Prudêncio et al. and by Ploemen et al.. […] Cells were seeded in 96-well plates at a density of 1 × 10^4 cells per well in 100 µL of culture medium and incubated at 37 °C with 5% CO2 for approximately 18 h. […] The culture medium was substituted by infection medium with diluted compounds 1 hour in advance of infection. Luciferase-expressing P. berghei sporozoites (PbA-LuciGFPcon spz) were freshly obtained through the dissection of salivary glands from infected female Anopheles stephensi mosquitoes. Sporozoites were added to the cells at 1:1 ratio, i.e., 1 × 10^4 sporozoites were added per well, and then subjected to centrifugation at 1800× g for 5 min. The plate was then incubated for 46 h at 37 °C with 5% CO2, at which time Huh-7 cell confluency was indirectly assessed by the alamarBlue assay (Invitrogen, Waltham, MA, USA), as reported in the manufacturer’s protocol. Parasite load was assessed 48 h post-infection by a bioluminescence assay, as reported by the manufacturer (Biotium, Fremont, CA, USA). GraphPad Prism 8 (GraphPad Software, Inc., La Jolla, CA, USA) was used to obtain IC50 values using nonlinear regression analysis to fit the dose-response curves normalized results.

Huh-7 cell line = assay: Huh-7 cell confluency by alamarBlue assay during hepatic-stage test; format: cell-based; conditions: human, 46 h, pH 7
Procedure: Activity against the hepatic stage of P. berghei infection was assessed using the human hepatoma cell line Huh-7 (deposited at the Japanese Collection of Research Bioresources under JCRB0403). The protocol was previously comprehensively described by Prudêncio et al. and by Ploemen et al.. Briefly, cell culture medium consisted of 1640 RPMI medium supplemented with 10% v/v fetal calf serum, 1% v/v L-glutamine, 1% v/v nonessential amino acids, 1% v/v penicillin/streptomycin, and 10 mM HEPES, pH 7. Cells were seeded in 96-well plates at a density of 1 × 10^4 cells per well in 100 µL of culture medium and incubated at 37 °C with 5% CO2 for approximately 18 h. […] The culture medium was substituted by infection medium with diluted compounds 1 hour in advance of infection. Luciferase-expressing P. berghei sporozoites (PbA-LuciGFPcon spz) were freshly obtained through the dissection of salivary glands from infected female Anopheles stephensi mosquitoes. Sporozoites were added to the cells at 1:1 ratio, i.e., 1 × 10^4 sporozoites were added per well, and then subjected to centrifugation at 1800× g for 5 min. The plate was then incubated for 46 h at 37 °C with 5% CO2, at which time Huh-7 cell confluency was indirectly assessed by the alamarBlue assay (Invitrogen, Waltham, MA, USA), as reported in the manufacturer’s protocol. Parasite load was assessed 48 h post-infection by a bioluminescence assay, as reported by the manufacturer (Biotium, Fremont, CA, USA). GraphPad Prism 8 (GraphPad Software, Inc., La Jolla, CA, USA) was used to obtain IC50 values using nonlinear regression analysis to fit the dose-response curves normalized results.

[4] = Huh-7, mean, unit (Table 1: µM), read-out: Antiplasmodial activity - Ø IC50
[5] = Huh-7, replicate 1, unit (Table 1: µM), read-out: Antiplasmodial activity - IC50 determination, 1. measurement
[6] = Huh-7, replicate 2, unit (Table 1: µM), read-out: Antiplasmodial activity - IC50 determination, 2. measurement
[7] = Huh-7, replicate 3, unit (Table 1: µM), read-out: Antiplasmodial activity - IC50 determination, 3. measurement
[8] = hepatic stage, Huh-7 cells, parasite load 48 h post-infection, read-out: IC50 P. berghei

SMILES	Ø screening, blood stage parasite load ([1]; at 10 nM)	Ø screening, blood stage parasite load ([1]; at 500 nM)	Ø screening, blood stage parasite load ([1]; at 100 nm)	viability at 24 h, 10 µM [2] [%]	1. screening of cytotoxic potential, HepG2 cell line (HepG2 cells)	2. screening of cytotoxic potential, HepG2 cell line (HepG2 cells)	3. screening of cytotoxic potential, HepG2 cell line (HepG2 cells)	Ø screening, HepG2 (sheet Graphs) (HepG2 cells)	activity at 1 µM [3] [%]	activity at 10 µM [3] [%]	IC50 [3, 4] [µM]	IC50 [3, 5] [µM]	IC50 [3, 6] [µM]	IC50 [3, 7] [µM]	IC50 [3, 8] [µM]	CELL CONFLUENCY Ø screening (Huh-7 cell line; 1 µM)	CELL CONFLUENCY Ø screening (Huh-7 cell line; 10 µM)	activity against P. berghei hepatic stages [3]
COc1c2c(cc3c1OCO3)[C@]13C=C[C@H](OC)C[C@H]1N(C2)C[C@H]3OC(=O)c1ccc([N+](=O)[O-])cc1 [28q, 11-O-(4-Nitrobenzoyl)ambelline]	6.94	4.487	4.835	53 ± 6	48.34	59.99	49.2	52.51	64.6	3.9	1.2	1.17	1.03	1.39	1.2 ± 0.18	102	102.2	
COc1c2c(cc3c1OCO3)[C@]13C=C[C@H](OC)C[C@H]1N(C2)C[C@H]3OC(=O)c1ccc(Cl)c([N+](=O)[O-])c1 [28t, 11-O-(4-Chloro-3-nitrobenzoyl)ambelline]	7.33	7.613	7.113	15 ± 2	13.64	17.76	14.19	15.2	114	92.6						96.94	92.83	not dose-dependent
COc1c2c(cc3c1OCO3)[C@]13C=C[C@H](OC)C[C@H]1N(C2)C[C@H]3OC(=O)c1ccc([N+](=O)[O-])cc1Cl [28s, 11-O-(2-Chloro-4-nitrobenzoyl)ambelline]	7.46	7.523	7.653	54 ± 6	55.56	46.62	58.6	53.59	48.2	1.4						95.79	77.1	not dose-dependent
COc1c2c(cc3c1OCO3)[C@]13C=C[C@H](OC)C[C@H]1[N@](C2)C[C@H]3OC(C)=O [28a, 11-O-Acetylambelline]	7.817	11.5	10.27	107 ± 3	104.06	105.26	110.57	106.6	79.5	64.4					> 10	94.22	93.33	
COc1c2c(cc3c1OCO3)[C@]13C=C[C@H](OC)C[C@H]1N(C2)C[C@H]3OC(=O)c1ccccc1 [28e, 11-O-Benzoylambelline]	7.597	7.383	7.907	95 ± 7	98.77	99.24	87.15	95.05	45.7	2.18	0.726	0.662	0.646	0.871	0.726 ± 0.126	94.15	86.56	
COc1c2c(cc3c1OCO3)[C@]13C=C[C@H](OC)C[C@H]1N(C2)C[C@H]3OC(=O)C(C)C [28c, 11-O-Isobutanoylambelline]	7.643	7.21	8.26	95 ± 6	97.78	100.15	88.22	95.38	89.1	59.8		15.5	14.4		> 10	94.69	93.64	
